From patent publication US20190352297A1, “SELECTIVE AURORA A KINASE INHIBITORS” (UNIVERSITAT BERN, priority 2017, published 2019)

Legend:
[1] = target: T1, Aurora A kinase domain (Homo sapiens, UniProt O14965); experiment: HTRF kinase assay, Aurora A; assay type: biochemical
T1 construct: human Aurora A kinase domain (residues 122-403 in the pET24-d vector); His-tag (cleaved yes); made in house; host or cells: E. coli BL21 (DE3) Rosetta
T1 sequence (O14965 122-403): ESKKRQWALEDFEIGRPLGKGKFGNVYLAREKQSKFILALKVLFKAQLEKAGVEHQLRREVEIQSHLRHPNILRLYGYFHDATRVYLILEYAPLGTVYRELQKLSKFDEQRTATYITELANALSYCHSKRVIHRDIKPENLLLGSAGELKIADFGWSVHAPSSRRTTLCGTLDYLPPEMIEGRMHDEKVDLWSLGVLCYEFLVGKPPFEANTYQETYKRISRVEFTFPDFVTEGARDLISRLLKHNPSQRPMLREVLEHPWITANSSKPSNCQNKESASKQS
Protocol: The clone of human Aurora A kinase domain (residues 122-403 in the pET24-d vector) was kindly provided by the Montoya laboratory (University of Copenhagen). The construct was transformed into E. coli BL21 (DE3) Rosetta cells and protein expression was induced with 0.5 mM IPTG at 20° C. for 12 hours. The cells were harvested at 6,000×g for 25 min at 4° C. and resuspended in lysis buffer (50 mM Tris-HCl, 500 mM NaCl, 1 mM PMSF, pH=8.0). Disruption of the cells was performed by sonication cooled on ice, after which the debris were removed by centrifugation at 110,000×g for 30 min at 4° C. Aurora A was purified by affinity chromatography using NiNTA resin from Qiagen following the manufacturer's instructions. After loading, the resin was washed with lysis buffer, followed by a second wash with 6% elution buffer (50 mM Tris-HCl, 500 mM NaCl, 500 mM imidazole, pH=8.0). Protein was eluted with 100% elution buffer. The eluate was exchanged into final buffer (20 mM Tris-HCl, 200 mM NaCl, 0.5 mM EDTA, 2 mM DTT, pH=8.0) using a HiPrep 26/10 desalting column (GE Healthcare). The His-tag was cleaved with TEV protease at 4° C. overnight. […] Protein concentration was determined by UV absorbance. […]
Aurora A and AuroraB kinases were assayed using the homogeneous time-resolved fluorescence (HTRF) KinEASE STK2 kit from Cisbio (France). […] After incubation at room temperature for one hour, fluorescence was measured at 620 nm (europium cryptate) and 665 nm (XL-665) after excitation at 317 nm (lag time 60 μs, integration time 500 μs) using a Tecan Infinite M1000 PRO microplate reader (Greiner 384-well plates, white, non-binding, small volume). The ratio of fluorescence (665 nm/620 nm) was calculated for each well and the results were expressed as follows: specific signal=ratio (sample)−ratio (negative control), where ratio=665 nm/620 nm×10^4. Compounds were measured in threefold serial dilutions at 10 different concentrations, covering the concentration range from no to full inhibition. Each concentration was measured in duplicates, and two independent determinations were made for each IC50 value. […]

[2] = test system: Aurora A (pT288); conditions: read-out: cellular IC50 (pT288) (reported); cited from earlier work
[3] = test system: Aurora B (pH3); conditions: pH 3; read-out: cellular IC50 (pH3) (reported); cited from earlier work
[4] = target: T2, Aurora A (Trp277) (Homo sapiens, UniProt O14965); experiment: Intrinsic tryptophan fluorescence; assay type: binding
T2 construct: human Aurora A kinase domain (residues 122-403 in the pET24-d vector); His-tag (cleaved yes); made in house; host or cells: E. coli BL21 (DE3) Rosetta
T2 sequence (O14965 122-403): T1 sequence (O14965 122-403)
Protocol: Binding experiments were performed by mixing Aurora A (500 nM, 375 nM, and 150 nM for 77, 9, and 88, respectively) with varying concentrations (0-100 μM) of the different compounds in buffer (final DMSO concentration 1%), followed by incubation for 15 min at room temperature. Tryptophan fluorescence spectra were recorded at room temperature using an Infinite M1000 Pro plate reader (Tecan) and Corning 96 well half area, flat bottom, non-binding surface, black polystyrene plates. Excitation occurred at 284 nm (bandwidth ±5 nm) and emission at 340 nm (bandwidth ±10 nm). The gain was calculated from the well with the highest protein concentration. Each measurement was done in triplicate.

[5] = test system: HeLa Kyoto cells; experiment: Chromosome misalignment during metaphase; assay type: cell-based, human; conditions: HeLa Kyoto cells, 0.25 μM
Protocol: (§1) HeLa Kyoto cells were cultured in high-glucose DMEM with GlutaMAX (Life Technologies) media supplemented with 10% fetal calf serum (FCS) in a humidified 5% CO2 incubator at 37° C. For plasmid transfections, cells were seeded at 80-90% confluence. 4 μg of plasmid DNA in 100 μl OptiMEM and 4 μl of Lipofectamine 2000 (Life Technologies) in 100 μl OptiMEM were incubated in parallel for 5 minutes, mixed for 20 minutes and added to each well. All Aurora A clones were constructed using full-length Aurora A as a template with appropriate PCR primer pairs. […] GFP-Aurora AR137A and GFP-Aurora AW277A were engineered using a site directed mutagenesis kit (Agilent Technologies, no. 210515) with appropriate primers. For determining the mitotic index and the chromosome misalignment phenotype, cells were incubated with various concentrations of compounds for 20 h before analysis. Cells were likewise treated with 0.25 μM MLN8237 (Selleckchem, no. S1133) or 5 μM ZM447439 (Selleckchem, no. S1103). For flow cytometry analysis, 50 nM […] and 2.5 μM ZM447439 were used. For rescue experiments, HeLa Kyoto cells were first transfected with GFP-Aurora A, GFP-Aurora AR137A or GFP-Aurora AW277A for 20 h, followed by incubation with 9 for another 20 h before cells were fixed with cold methanol and stained. To assess the impact of compound 9 on cell cycle progression, DNA content was analyzed after propidium iodide staining using FACS (BD Accuri C6 flow cytometer).
(§2) For immunofluorescence, cells were fixed in cold methanol, washed in PBT (PBS supplemented with 0.05% Tween-20) and stained with the following primary antibodies: 1:200 rabbit anti-pT288 (Cell Signaling, C39D8), 1:200 rabbit anti-pH3S10 (Cell Signaling, D2C8), 1:500 mouse anti-α-tubulin (Transduction Laboratories, 612709), 1:300 mouse anti-GFP (MAB3580, Millipore), 1:200 anti-TPX2 (Santa Cruz Biotechnology, sc-32863), anti-Aurora A (Invitrogen, 458900). Secondary antibodies were anti-mouse conjugated to Alexa488 or Alexa568, as well as anti-rabbit conjugated to Alexa488 or Alexa568, all used at 1:500 (Invitrogen). Confocal images were acquired on a Zeiss LSM 710 confocal microscope equipped with a Axiocam MRm (B/VVW) CCD camera using a 63×NA 1.0 oil objective and processed in ImageJ and Adobe Photoshop, maintaining relative image intensities within a series.

[6] = test system: Aurora A localization, HeLa Kyoto cells; experiment: Aurora A localization at the mitotic spindle (immunofluorescence); assay type: cell-based, human; conditions: overnight
Protocol: as §1
Secondary antibodies were anti-mouse conjugated to Alexa488 or Alexa568, as well as anti-rabbit conjugated to Alexa488 or Alexa568, all used at 1:500 (Invitrogen). Confocal images were acquired on a Zeiss LSM 710 confocal microscope equipped with a Axiocam MRm (B/VVW) CCD camera using a 63×NA 1.0 oil objective and processed in ImageJ and Adobe Photoshop, maintaining relative image intensities within a series.

[7] = test system: phospho-Histone H3 Ser10 (Aurora B); experiment: Phospho-Histone H3 Ser10 in cells (Aurora B activity); assay type: cell-based, human; conditions: treated cells
Protocol: as §1, §2

[8] = test system: HeLa Kyoto cells; experiment: DNA content analysis by flow cytometry; assay type: cell-based, human; conditions: 48 h, 9 even at 10 μM
Protocol: as §1, with “For rescue experiments, HeLa Kyoto cells were first transfected with GFP-Aurora A, GFP-Aurora AR137A or GFP-Aurora AW277A for 20 h, followed by incubation with 9 for another 20 h before cells were fixed with cold methanol and stained.” left out

[9] = test system: pThr288 Aurora A; experiment: Phosphorylation of Aurora A Thr288 in cells; assay type: cell-based, human
Protocol: as §1
as §2, with “Confocal images were acquired on a Zeiss LSM 710 confocal microscope equipped with a Axiocam MRm (B/VVW) CCD camera using a 63×NA 1.0 oil objective and processed in ImageJ and Adobe Photoshop, maintaining relative image intensities within a series.” left out

In the case of `CCc1ccc(N=C2SC(Cc3ccnc(N)c3)C(=O)N2C)cc1` (racemic) [rac-91], the “fold less active than precursor 79” value ([1]; Aurora A inhibition relative to 79) is reported as 7 fold.

In the case of `O=C(O)[C@]1(Cc2cccc(Nc3nccs3)n2)CC[C@@H](Oc2cccc(Cl)c2F)CC1` [MK-5108], the IC50 [2] is listed as […] and the IC50 [3] is listed as > 10000 nM.

With `CCc1ccc(N=C2SC(=Cc3ccnc(Nc4ccc(-c5nn[nH]n5)cc4)c3)C(=O)N2C)cc1` [Compound 88] the “tryptophan fluorescence, environment of Trp277” value [4] was “perturbed the environment of Trp277”.

In the case of `COc1cc(Nc2ncc3c(n2)-c2ccc(Cl)cc2C(c2c(F)cccc2OC)=NC3)ccc1C(=O)O` [Compound 1, Alisertib, reference compound], the misaligned chromosomes [5] is reported as ~100%, the “Aurora A localization at spindle microtubules and centrosomes” value [6] is reported as “present at centrosomes but not on spindle microtubules” and the “Aurora A localization at spindle microtubules and centrosomes” value ([6]; listed as alisertib) is reported as “notably displaced from the spindle microtubules”. The IC50 [2] was […] and the IC50 [3] was […].

In the case of `COc1cc2c(Nc3ccc(NC(=O)c4ccccc4)cc3)ncnc2cc1OCCCN1CCOCC1` [Compound 94, ZM447439, reference compound], the “distribution of phospho-Histone H3 Ser10” value [7] is reported as “absent” and the “accumulation of cells with 8N and 16N DNA contents” value [8] is reported as “massive accumulation”.

In the case of `CCc1ccc(N=C2SC(=Cc3ccncc3)C(=O)N2CCOC)cc1` [Compound 77], the “tryptophan fluorescence, environment of Trp277” value [4] is reported as “perturbed the environment of Trp277”.

For `CCc1ccc(N=C2SC(Cc3ccnc(Nc4ccc(C(=O)O)cn4)c3)C(=O)N2C)cc1` (racemic) [rac-92], the IC50 ([1]; free Aurora A, 20 μM ATP, HTRF, read-out: IC50 Aurora A (biochemical)) was 24 nM, the activity in cells [9] was “did not show any activity” and the “cellular pThr288 Aurora-A levels” value ([9]; overnight incubation) was “does not reduce pThr288 levels”.
